The results in this text go back to PubChem BioAssay AID270 (DTP/NCI, 2004).

This assay relates to BDF1 mice, s.c. Lewis lung carcinoma, T/C %. In words: NCI In Vivo Anticancer Drug Screen. Data for tumor model Lewis Lung Carcinoma (subcutaneous) in B6D2F1 (BDF1) mice. Put shortly: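 The value reflects a ratio in which the treated cohort's survival time or tumour size is compared against mice receiving only vehicle.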

SMILES strings stand for the structures. “And” between values parts separate entries of the source, which are not always exact repeats. Equal entries are not always repeated. Inconclusive results are not listed.

For the compound `O=NN(CCF)C(=O)NC1CCS(=O)(=O)CC1`, the T/C (endpoint: median survival time, dose: 9.0 mg/kg/injection, schedule: Q01DX001 (ip), vehicle: other, higher = longer survival) was 120 % of control; the T/C (endpoint: median survival time, dose: 14.0 mg/kg/injection, schedule: Q01DX001 (ip), vehicle: other, higher = longer survival) was 109 % of control; the T/C (endpoint: median survival time, dose: 21.0 mg/kg/injection, schedule: Q01DX001 (ip), vehicle: other, higher = longer survival) is 121 % of control; the T/C (endpoint: median survival time, dose: 32.0 mg/kg/injection, schedule: Q01DX001 (ip), vehicle: other, higher = longer survival) was 107 % of control; the T/C (endpoint: median tumor weight (est.), dose: 11.0 mg/kg/injection, schedule: Q01DX001 (ip), vehicle: other, higher = larger tumour) is 65 % of control; the T/C (endpoint: median tumor weight (est.), dose: 21.0 mg/kg/injection, schedule: Q01DX001 (ip), vehicle: other, higher = larger tumour) was 65 % of control. Further, the T/C (endpoint: median tumor weight (est.), dose: 32.0 mg/kg/injection, schedule: Q01DX001 (ip), vehicle: other, higher = larger tumour) was 10 % of control.
On to `CS(=O)(=O)OCCCCCCCCCOS(C)(=O)=O`, for which the T/C reads like this: (endpoint: mean tumor weight, dose: 12.5 mg/kg/injection, schedule: Q01DX011 (ip), vehicle: carboxymethylcellulose (CMC), higher = larger tumour) 104 % of control and 105 % of control; (endpoint: mean tumor weight, dose: 25.0 mg/kg/injection, schedule: Q01DX011 (ip), vehicle: carboxymethylcellulose (CMC), higher = larger tumour) 68 % of control and 84 % of control.
Consider `O=NN(CCCl)C(=O)NC1CCC(CC2CCC(NC(=O)N(CCCl)N=O)CC2)CC1` (stereo unspecified), for which the T/C is 80 % of control (endpoint: median tumor weight (est.), dose: 46.0 mg/kg/injection, schedule: Q01DX001 (ip), vehicle: gum acacia, higher = larger tumour); 76 % of control (endpoint: median tumor weight (est.), dose: 93.0 mg/kg/injection, schedule: Q01DX001 (ip), vehicle: gum acacia, higher = larger tumour); 55 % of control (endpoint: median tumor weight (est.), dose: 187.0 mg/kg/injection, schedule: Q01DX001 (ip), vehicle: gum acacia, higher = larger tumour); 10 % of control (endpoint: median tumor weight (est.), dose: 250.0 mg/kg/injection, schedule: Q01DX001 (ip), vehicle: gum acacia, higher = larger tumour); 3 % of control (endpoint: median tumor weight (est.), dose: 375.0 mg/kg/injection, schedule: Q01DX001 (ip), vehicle: gum acacia, higher = larger tumour).
For `CN(N=O)C(N)=O`, the T/C by setting is: (endpoint: mean tumor weight, dose: 2.5 mg/kg/injection, schedule: Q01DX011 (ip), vehicle: saline, higher = larger tumour) 78 % of control; (endpoint: mean tumor weight, dose: 5.0 mg/kg/injection, schedule: Q01DX011 (ip), vehicle: saline, higher = larger tumour) 77 % of control; (endpoint: mean tumor weight, dose: 10.0 mg/kg/injection, schedule: Q01DX011 (ip), vehicle: saline, higher = larger tumour) 57 % of control; (endpoint: mean tumor weight, dose: 20.0 mg/kg/injection, schedule: Q01DX011 (ip), vehicle: saline, higher = larger tumour) 20 % of control.
On to `COc1cc2c[n+](C)c3c4cc5c(cc4ccc3c2cc1OC)OCO5`, for which the T/C (endpoint: median survival time, dose: 5.0 mg/kg/injection, schedule: Q01DX009 (ip), vehicle: water, higher = longer survival) is 103 % of control; the T/C (endpoint: median survival time, dose: 10.0 mg/kg/injection, schedule: Q01DX009 (ip), vehicle: water, higher = longer survival) is 107 % of control; the T/C (endpoint: median survival time, dose: 20.0 mg/kg/injection, schedule: Q01DX009 (ip), vehicle: water, higher = longer survival) was 87 % of control.
For `COc1ccc(CN2CCCN(Cc3ccc(OC)cc3)C2c2ccccc2)cc1`, the T/C is 120 % of control (endpoint: mean tumor weight, dose: 111.0 mg/kg/injection, schedule: Q01DX011 (ip), vehicle: other, higher = larger tumour) and 83 % of control (endpoint: mean tumor weight, dose: 250.0 mg/kg/injection, schedule: Q01DX011 (ip), vehicle: other, higher = larger tumour).
Consider `C[C@@H]1CCC[C@@H](NC(=O)N(CCCl)N=O)C1`, for which the T/C reads like this: (endpoint: median survival time, dose: 4.68 mg/kg/injection, schedule: Q01DX009 (ip), vehicle: Klucel (hydroxypropylcellulose) (HPC), higher = longer survival) 97 % of control; (endpoint: median survival time, dose: 9.37 mg/kg/injection, schedule: Q01DX009 (ip), vehicle: Klucel (hydroxypropylcellulose) (HPC), higher = longer survival) 98 % of control; (endpoint: median survival time, dose: 18.75 mg/kg/injection, schedule: Q01DX009 (ip), vehicle: Klucel (hydroxypropylcellulose) (HPC), higher = longer survival) 108 % of control.
For `O=C(CCCN1CCC(O)(c2cccc(C(F)(F)F)c2)CC1)c1ccc(F)cc1`, the T/C by setting is: (endpoint: median survival time, dose: 25.0 mg/kg/injection, schedule: Q04DX003 (ip), vehicle: saline with Tween-80, higher = longer survival) 92 % of control; (endpoint: median survival time, dose: 50.0 mg/kg/injection, schedule: Q04DX003 (ip), vehicle: saline with Tween-80, higher = longer survival) 121 % of control.
Turning to `CS(=O)(=O)OC[C@@H](O)[C@@H](O)COS(C)(=O)=O`, the T/C by setting is: (endpoint: mean tumor weight, dose: 62.5 mg/kg/injection, schedule: Q01DX011 (ip), vehicle: saline, higher = larger tumour) 71 % of control; (endpoint: mean tumor weight, dose: 250.0 mg/kg/injection, schedule: Q01DX011 (ip), vehicle: saline, higher = larger tumour) 115 % of control; (endpoint: mean tumor weight, dose: 500.0 mg/kg/injection, schedule: Q01DX011 (ip), vehicle: saline, higher = larger tumour) 94 % of control; (endpoint: mean tumor weight, dose: 750.0 mg/kg/injection, schedule: Q01DX011 (ip), vehicle: other, higher = larger tumour) 100 % of control; (endpoint: mean tumor weight, dose: 1000.0 mg/kg/injection, schedule: Q01DX011 (ip), vehicle: other, higher = larger tumour) 98 % of control.
`ClCCn1cnc2c(SCc3ccccc3Cl)ncnc21`: the T/C is 75 % of control (endpoint: mean tumor weight, dose: 60.0 mg/kg/injection, schedule: Q01DX011 (ip), vehicle: other, higher = larger tumour); 58 % of control (endpoint: mean tumor weight, dose: 120.0 mg/kg/injection, schedule: Q01DX011 (ip), vehicle: other, higher = larger tumour); 64 % of control (endpoint: mean tumor weight, dose: 240.0 mg/kg/injection, schedule: Q01DX011 (ip), vehicle: other, higher = larger tumour).
